Assay results taken from US6770740B1, “Crosslinked DNA condesate compositions and gene delivery methods” (The Regents of the University of Michigan, priority 1999, dated 2004).
Where a SMILES comes first, the peptide text is derived from it.

Key:
[1] = target: T1, glutathione reductase (Homo sapiens, UniProt P00390); details: challenged with glutathione reductase; Drummer et al., 1987; cited from earlier work
T1 sequence (P00390 44-522): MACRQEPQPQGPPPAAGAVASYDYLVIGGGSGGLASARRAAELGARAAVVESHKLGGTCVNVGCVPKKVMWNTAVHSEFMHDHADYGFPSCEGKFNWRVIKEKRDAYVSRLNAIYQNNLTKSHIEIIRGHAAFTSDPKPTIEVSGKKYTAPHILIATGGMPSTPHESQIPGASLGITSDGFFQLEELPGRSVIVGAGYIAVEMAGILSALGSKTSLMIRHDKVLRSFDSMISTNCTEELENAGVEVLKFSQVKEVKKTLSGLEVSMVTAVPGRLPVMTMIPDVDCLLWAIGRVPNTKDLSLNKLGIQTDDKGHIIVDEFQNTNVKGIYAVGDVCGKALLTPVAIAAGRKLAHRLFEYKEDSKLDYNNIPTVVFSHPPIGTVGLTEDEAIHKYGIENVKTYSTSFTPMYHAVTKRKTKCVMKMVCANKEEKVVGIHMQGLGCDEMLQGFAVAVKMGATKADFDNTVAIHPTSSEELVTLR

[2] = Kinetics of peptide oxidation (disulfide bond formation) in solution by ES-MS; assay type: physicochemical; details: pH 7.5, free in solution
Experimental: The kinetics of disulfide bond formation in solution was monitored by […]. […] Single ion monitoring (SIM) scans were taken at 20 sec intervals over 2 h while monitoring the disappearance of the M+2H^+ parent ion (1258 amu) and formation of the M+2H^+ ion of the oxidized species (1256 amu).

[3] = system: plasmid DNA; test: Kinetics of peptide cross-linking on DNA (SYBR-Gold fluorescence), Example 5; assay type: physicochemical; details: charge ratio 2:1
Experimental: The kinetics of cross-linking within peptide DNA condensates was studied indirectly by monitoring the displacement of SYBR-Gold™ intercalator dye from DNA condensates as a function of time. Peptide DNA condensates were prepared (200 μl of 50 μg/ml) at a peptide stoichiometry of 0.4 nmol per μg of DNA. Immediately after mixing peptide and DNA, a 10 μl aliquot was combined with 990 μl of SYBR-Gold™ (1X) and the fluorescence intensity (Ex 495 nm, Em 537 nm) was continuously monitored for 30 min.
The rate of cross-linking was also examined as a function of peptide concentration. The stoichiometry of peptide IV was increased from 0.4 to 1.2 nmol per μg of DNA and the rate of declining fluorescence intensity was determined as described above.

[4] = QELS particle size and zeta potential of cross-linking peptide DNA condensates, Example 5; assay type: physicochemical
Experimental: The particle size of each peptide DNA condensate was determined by quasielastic light scattering (QELS) at a scatter angle of both 15° and 90° on a Brookhaven ZetaPlus™ particle sizer. Condensates were prepared at a DNA concentration of 50 μg/ml in 400 μl HBM at a stoichiometry of 0.4 nmol of peptide per μg of DNA corresponding to a charge ratio of approximately 2:1 for each. The mean diameter and population distribution were computed from the diffusion coefficient using a unimodal cummulant analysis supplied by the manufacturer.
The particle size and zeta peptide IV DNA condensates were determined by titrating 7.5 to 37.5 nmol of peptide with 75 μg of DNA in 1.5 ml of HBM to produce 50 μg/ml DNA condensates with charge ratio of 0.5-2.5. The zeta potential was averaged from 10 determines.

[5] = Shear stress stability of cross-linked DNA condensates (salt sonication), Example 5; assay type: physicochemical
Experimental: Peptide DNA condensates (200 μl of 50 μg/ml) were formed and incubated at RT for 30 min and then combined with 0 to 200 μl of 5 M sodium chloride and normalized to 400 μl with HBM to achieve a final sodium chloride concentration of 0, 0.2, 0.4, 0.8, 1.0, 1.5, 2.0, and 2.5 M. Each sample was sonicated for 30 sec with a 100 W Microson™ XL-2000 ultrasonic probe homogenizer (Kontes, Vineland N.J.) with a vibrational amplitude of 6 to fragment uncondensed DNA (Adami et al., 1998). DNA condensates were digested with 30 μg of trypsin for 12 h at 37° C. then electrophoresed on an agarose gel and visualized by ethidium bromide staining.

[6] = system: plasmid DNA; test: Thiazole orange displacement titration of peptide binding to DNA, Example 6; details: titration across charge ratios 0.25-8
Experimental: Peptide DNA condensates were prepared by combining 50 μg of DNA in 500 μl of Hepes buffered mannitol (HBM) (5 w/v% mannitol, 5 mM Hepes, pH 7.5) with […] of peptide in 500 μl of HBM while vortexing to form peptide DNA condensates with a calculated primary amine to phosphate charge ratio between 0.25 and 8.0 (NH4^+:PO4). The condensates were allowed to cross-link for 30 min prior to performing physical measurements. The binding of each peptide to DNA was assayed by combining peptide DNA condensates (50 μl) with 950 μl of HBM containing 0.1 μM thiazole orange. The fluorescence of the intercalated dye was measured using an LS50B fluorometer (Perkin Elmer, UK) by exciting at 500 nm while monitoring emission at 530 nm with the slit width set at 15 and 20 nm, respectively. Fluorescence blanks were substracted from all values before data analysis.

[7] = QELS particle size and zeta potential of peptide DNA condensates, Example 6; assay type: physicochemical; details: charge ratio 4:1, 50 μg/ml DNA in HBM; for Particle Size (nm): 90°, average and SD of three, No particles formed; for Zeta Potential (mV): average and SD of ten
Experimental: The particle size and zeta potential of peptide DNA condensates were determined by quasielastic light scattering (QELS) using a Brookhave ZetaPlus™. Particle size analysis was performed in triplicate at a DNA concentration of 50 μg/ml in HBM at a charge ratio of 4:1 and a scattering angle of 90°. Data analysis utilized a multimodal volume distribution option included with the instrument. Zeta potential was also determined using 50 μg/ml peptide DNA condensates prepared at a 4:1 charge ratio in HBM. The reported zeta potential was averaged from ten determinations.

[8] = system: CHO cells; test: Luciferase gene expression in CHO cells, Example 6; assay type: cell-based; details: 80 μM chloroquine
[9] = system: plasmid DNA; test: Kinetics of peptide cross-linking on DNA (SYBR-Gold), Example 6; assay type: physicochemical; details: charge ratio 4:1
Experimental: The kinetics of disulfide bond formation of peptides bound to DNA was analyzed indirectly by monitoring the displacement of SYBR-Gold™ from DNA condensates. Peptide DNA condensates were formed by combining 20 μg of DNA in 500 μl of HBM containing 1× SYBR-Gold™ with 500 μl (26-52 nmol) of peptide in HBM containing 1 × SYBR-Gold to achieve a charge ratio of 4:1 (NH4^+:PO4). The fluorescence intensity (Ex 495 nm, Em 600 nm) was continuously monitored for 30 min to determine kinetics of cross-linking.

[10] = system: HepG2 cells; test: Luciferase gene expression in HepG2 cells, Example 6; assay type: cell-based; details: HepG2, absence of chloroquine
Experimental: HepG2 cells (1.5×10^5) were plated on 6×35 mm wells and grown to 50% confluencey in MEM supplemented with 10% FBS, penicillin and streptomycin (100 U/ml), sodium pyruvate (100 mM), and L-glutamine (2 mM). Transfections were performed in MEM (2 ml per 35 mm well) with 2% FBS with and without 80 μM chloroquine. Peptide DNA condensates (10 μg of DNA of 0.2 ml HBM) were added dropwise to triplicate wells. After a 5 h incubation at 37° C., the medium was replaced with MEM supplemented with 10% FBS. After 24 h, cells were washed with ice-cold phosphate buffered saline (calcium and magnesium free) and then treated with 0.5 ml of ice-cold lysis buffer (25 mM) Tris chloride pH 7.8, 1 mM EDTA, 8 mM magnesium chloride, 1% Triton X-100, 1 mM DTT) for 10 min. The cell lysates were scraped, transferred to 1.5 ml microcentrifuge tube, and centrifuged for 7 min at 13,000 g at 4° C. to pellet debris.
Lysis buffer (300 μl), sodium-ATP (4 μl of a 180 mM solution, pH 7, 4° C.) and cell lysate (100 μl, 4° C.) were combined in a test tube, briefly mixed and immediately placed in the luminometer. Luciferase relative light units (RLU) were recorded on a Lumat™ LB 9501 (Berthoid Systems, Germany) with 10 sec integration after automatic injection of 100 μl of 0.5 mM D-luciferin (prepared fresh in lysis buffer without DTT). The RLU were converted into fmol using a standard curve generated by adding a known amount of luciferase (0.01 to 100 fmols with specific activity of 2.5 nU/fmol) to 35 mm wells containing 50% confluent cells and lysis buffer. Protein concentrations were measured by Bradford assay using bovine serum albumin as a standard (Bradford, 1976). […]
LipofectAce™ (Gibco BRL, 1:2.5 w/w dimethyl dioctadecylammonium bromide and dioleoyl phosphatidylethanolamine) was used to mediate gene transaction according to the manufacturer's instructions. […] The cells were incubated for a total of 24 h, harvested and analyzed for luciferase as described above.

[11] = Shear stress stability (salt sonication assay), Example 6; assay type: physicochemical; details: 30 sec sonication
Experimental: The relative stability of peptide DNA condensates were examined using a salt sonication assay (Adami and Rice, 1999). Peptide DNA condensates (200 μl of 50 μg/ml) were formed as described above, incubated at RT for 30 min and then combined with 0-200 μl of 5 m […] and normalized to 400 μl with HBM to achieve a final sodium chloride concentration of 0, 0.2, 0.4, 0.8, 1.0, 1.5, 2.0 and 2.5 M. Each sample was sonicated for 30 sec with a 100 W Microson™ XL-2000 ultrasonic probe homogenizer (Kontes, Vineland N.J.) with a vibrational amplitude of 5 fragment uncondensed DNA. DNA condensates were digested with 30 μg to trypsin for 12 h at 37° C., electrophoresed on a 1% agarose gel electrophoresed in TEA buffer for 2 h, then visualized by ethidium bromide staining and destaining prior to photography on a transilluminator.

[12] = system: COS 7 cells; test: Luciferase gene expression in COS 7 cells, Example 6; assay type: cell-based; details: COS 7, 80 μM chloroquine

Question: For CC(C)(SSC(C)(C)C(N)C(=O)O)C(N)C(=O)O (stereo not shown) [Penicillamine disulfide], which “stability relative to cystine” value [1] is on record?
Answer: approximately 26 fold

Question: Which half-life at 100 µM ([2]; methanol/ammonium acetate solution, read-out: t½ of disappearance of the parent ion (intra-molecular disulfide formation)) does the source give for NCCCC[C@H](NC(=O)[C@H](CCCCN)NC(=O)[C@H](CCCCN)NC(=O)[C@H](CCCCN)NC(=O)[C@H](CS)NC(=O)[C@H](CCCCN)NC(=O)[C@H](CCCCN)NC(=O)[C@H](CCCCN)NC(=O)[C@H](CS)NC(=O)[C@H](CCCCN)NC(=O)[C@H](CCCCN)NC(=O)[C@H](CCCCN)NC(=O)[C@H](CS)NC(=O)[C@H](CCCCN)NC(=O)[C@H](CCCCN)NC(=O)[C@H](CCCCN)NC(=O)[C@H](CCCCN)NC(=O)[C@H](Cc1c[nH]c2ccccc12)NC(=O)[C@@H](N)CS)C(=O)N[C@@H](CS)C(=O)O [V, Cys-Trp-Lys4-Cys-Lys3-Cys-Lys3-Cys-Lys4-Cys] (H-CWKKKKCKKKCKKKCKKKKC-OH; N-terminus and C-terminus assumed) here?
Answer: ~10 min

Question: And the “time to complete disappearance of the parent ion” value [2]?
Answer: ≤ 25 min

Question: And the “time of inter-peptide cross-linking on DNA” value [3]?
Answer: less than 30 min

Question: What about the “Particle Size Mean Diameter, Oxidized, 15°” value ([4]; HBM after 2 h incubation, 50 μg/ml DNA, 0.4 nmol peptide per μg DNA, scattering angle 15°) of the same molecule?
Answer: 41 nm

Question: And the “Particle Size Mean Diameter, Oxidized, 90°” value ([4]; HBM after 2 h incubation, 50 μg/ml DNA, 0.4 nmol peptide per μg DNA, scattering angle 90°)?
Answer: 57 nm

Question: What about the “Particle Size Mean Diameter, Saline” value ([4]; HBM with added saline (0.15 M) after 15 min) of the same molecule?
Answer: 93 nm

Question: And the “Particle Size Mean Diameter, Reduced” value ([4]; following addition of TCEP (1 mM))?
Answer: 171 nm

Question: And the “sodium chloride concentration of DNA condensate stability after reduction” value ([5]; DNA condensates reduced with TCEP)?
Answer: 0.4 M

Question: And the “sodium chloride concentration above which DNA was not protected, pre-oxidized peptide” value ([5]; peptide fully oxidized prior to making DNA condensates)?
Answer: 0.4 M

Question: For Cys-(Lys)4-Cys (CKKKKC) [Peptide 5], which “charge ratio (NH4+:PO4) needed to condense DNA (thiazole orange fluorescence minimum)” value [6] is on record?
Answer: 3

Question: And the “Particle Size (nm)” value [7]?
Answer: 38 ± 10 nm

Question: What about the “gene expression relative to peptide 3, 6 and 7” value [8] of the same molecule?
Answer: three-orders of magnitude lower

Question: What does the source list for “Cys-(Lys)4-His-(Lys)3-Cys (CKKKKHKKKC) [Peptide 12]”?
Answer: time to completion of cross-linking on DNA (SYBR-Gold asymptote) [9]: less than 10 min; Particle Size (nm) [7]: 87 ± 20 nm; Zeta Potential (mV) [7]: 30 ± 2 mV; higher gene expression compared to peptide 7 DNA condensates [10]: 3 fold

Question: Which results are given for Cys-(Lys)8-Cys (CKKKKKKKKC) [Peptide 7]?
Answer: charge ratio (NH4+:PO4) needed to condense DNA (thiazole orange fluorescence minimum) [6]: 2; sodium chloride concentration at which DNA condensates dissociate [11]: 0.8 to 1 M; Particle Size (nm) [7]: 53 ± 16 nm; Zeta Potential (mV) [7]: 26 ± 2 mV; lower gene expression relative to peptide 3, 5 and 6 DNA condensates [12]: 5 fold
